In US12280040B2, “Compositions and methods of a dihydroisoxazole compound that reduces ectoparasite infestations on fish” (EVAH Atlantic Inc., priority 2023, dated 2025):

Legend:
[1] = tested on: Lepeophtheirus salmonis; test: Efficacy of medicated feed against an existing experimental sea lice infestation on Atlantic salmon post-smolts (Example 1); assay type: in vivo
Experimental: A randomized, blinded, parallel-group, negative-controlled study was conducted in which, the active ingredient was administered in medicated feed to laboratory-maintained Atlantic salmon (Salmo salar) post-smolts in seawater. Smolts were experimentally infested with sea lice (Lepeophtheirus salmonis) under laboratory conditions prior to being fed the medicated diet to assess the efficacy of the active ingredient in reducing the number of sea lice/fish.
Healthy Atlantic salmon post-smolts (n=750) were selected for enrollment and distributed sequentially across ten (10) study tanks. Fish were weighed individually during the allocation of fish to tanks on study day (SD)-95, with SD 0 serving as the first day of treatment. Fish were weighed on SD −2, +8, +18, +22, and +30. The fish weights on SD −2 were used to estimate the average weight of all fish and used to determine the feeding amount during the treatment period (SD 0−+6). A target of total of 10 fish/tank were lethally sampled, lice-counted, and weight and length were measured. The mean weight of fish in tanks on SD −2 was 829.9±161.7 g.
Atlantic salmon post-smolts were infested once with sea lice using an experimental challenge model. About 50 copepodids (Lepeophtheirus salmonis) per fish were added to each tank on SD −17. During the study the water temperature varied between 8 and 12° C. The water oxygen saturation was consistently above 80% throughout the study.
Five treatment groups were randomly assigned to ten study tanks so that there were 2 tanks per treatment group. Study personnel were blinded as to the identity of the treatments for each tank.
Sea lice were counted four times during the study. All sampled fish were euthanized and lice counted. The baseline count occurred on SD −2 (with 10 fish per tank), corresponding to ˜160 degree days (15 d) post-infestation. The time was sufficient for lice development to the chalimus stage. Count 1 occurred on SD +8 (with 20 fish per tank) corresponding to ˜260 degree days (25 d) post infestation and 2 days post treatment. The time was sufficient for lice development into chalimus and pre-adult stages in the control tanks. Count 2 occurred on SD +18 (with 20 fish per tank) corresponding to ˜360 degree days (35 d) post infestation and 12 days post treatment. The time was sufficient for lice development into adult males and females in the control tanks. Count 3 occurred on SD +22 (with 20 fish per tank) corresponding to ˜400 degree days (39 d) post infestation and 16 days post treatment. The time was sufficient for lice development into adult males and females with no chalimus stages present in the control tanks.
Medicated feed was prepared by dry coating commercially available fish feed pellets with a premix containing the active ingredient to reach a content of about 1.6, 4.0. 8.0 and 19.9 mg/kg. The fish pellets were then coated with feed grade herring fish oil at an inclusion rate of about 0.75% w/w (7.5 g/kg feed) The consumption rate of the medicated feed was set to 0.628% body weight.
Treatment efficacy was computed for total number of sea lice/fish and total number of mobile life stages, i.e., preadult & adult sea lice/fish for each post-treatment sea lice counting occasion. For the total number of attached/fish, treatment efficacy was computed at the first count post-treatment. Percent efficacy was computed using Abbott's formula for each treatment group compared to control as follows:
[formula] where MC and MT are the arithmetic means of sea lice counts in the untreated control and S-roxapin-treated groups, respectively.
Treatments were considered efficacious when the percent efficacy was ≥90% for treated groups compared to untreated control groups.
The mean sea lice abundance was reported for different parasite life stages (attached, mobile, and total (attached and mobile together)) and computed as the number of lice on salmon divided by the number of sampled fish per tank. […]

[2] = tested on: sea lice; test: First set of experiments: medicated feed over 7 consecutive days to salmon, sea lice infestation; assay type: in vivo; details: all dose rates 0.050, 0.125, 0.250 mg/kg/d in medicated feed over 7 consecutive days to salmon
Experimental: The inventors conducted a first set of experiments with administration in medicated feed over 7 consecutive days to salmon of 0.050, 0.125, 0.250 mg/kg/d to determine a non-therapeutic dosage for control or treatment of sea lice infestation. As these lower dosages represented a large reduction in concentration to that described in U.S. Pat. No. 9,920,037 (1.0 mg/kg/d) and, as well, represented concentrations well below the dosage for related IOB products for dogs, cats and poultry approved between 2014 and 2021 by such regulatory authorities as the U.S. Food and Drug Administration, Health Canada, and the European Medicines Agency, it was reasonable to expect to find a non-therapeutic dosage at the lower dosages tested.

[3] = tested on: Lepeophtherius salmonis; details: 1.0 mg/kg/d in medicated feed to Atlantic salmon for 7 consecutive days; lice counted 10 days after end of treatment; cited from earlier work
[4] = 0.010 mg/kg/d in feed 7 d, 2 DPT
[5] = 0.010 mg/kg/d in feed 7 d, 12 DPT
[6] = 0.010 mg/kg/d in feed 7 d, 16 DPT
[7] = 0.025 mg/kg/d in feed 7 d, 2 DPT
[8] = 0.025 mg/kg/d in feed 7 d, 12 DPT
[9] = 0.025 mg/kg/d in feed 7 d, 16 DPT
[10] = 0.050 mg/kg/d in feed 7 d, 2 DPT
[11] = 0.050 mg/kg/d in feed 7 d, 12 DPT
[12] = 0.050 mg/kg/d in feed 7 d, 16 DPT
[13] = 0.125 mg/kg/d in feed 7 d, 2 DPT
[14] = 0.125 mg/kg/d in feed 7 d, 12 DPT
[15] = 0.125 mg/kg/d in feed 7 d, 16 DPT

C#CCNC(=O)CNC(=O)c1sc(C2=NO[C@@](c3cc(Cl)c(Cl)c(Cl)c3)(C(F)(F)F)C2)cc1C [S-roxapin, (S)-3-methyl-N-(2-oxo-2-(prop-2-yn-1-ylamino)ethyl)-5-(5-(3,4,5-trichlorophenyl)-5-(trifluoromethyl)-4,5-dihydroisoxazol-3-yl)thiophene-2-carboxamide]
Number of Attached Lice/Fish % Efficacy [1, 4]: 96.2%
Number of Attached Lice/Fish Mean ± SD [1, 4]: 0.1 ± 0.3 lice/fish
Number of Mobile Lice/Fish % Efficacy [1, 4]: 89.1%
Number of Mobile Lice/Fish Mean ± SD [1, 4]: 1.7 ± 2.2 lice/fish
Total Number of Lice/Fish % Efficacy [1, 4]: 90.3%
Total Number of Lice/Fish Mean ± SD [1, 4]: 1.8 ± 2.4 lice/fish
Number of Attached Lice/Fish Mean ± SD [1, 5]: 0.0 ± 0.0 lice/fish
Number of Mobile Lice/Fish % Efficacy [1, 5]: 94.1%
Number of Mobile Lice/Fish Mean ± SD [1, 5]: 1.1 ± 3.0 lice/fish
Total Number of Lice/Fish % Efficacy [1, 5]: 94.1%
Total Number of Lice/Fish Mean ± SD [1, 5]: 1.1 ± 3.0 lice/fish
Number of Attached Lice/Fish Mean ± SD [1, 6]: 0.0 ± 0.0 lice/fish
Number of Mobile Lice/Fish % Efficacy [1, 6]: 97.7%
Number of Mobile Lice/Fish Mean ± SD [1, 6]: 0.5 ± 0.7 lice/fish
Total Number of Lice/Fish % Efficacy [1, 6]: 97.7%
Total Number of Lice/Fish Mean ± SD [1, 6]: 0.5 ± 0.7 lice/fish
Number of Attached Lice/Fish % Efficacy [1, 7]: 98.5%
Number of Attached Lice/Fish Mean ± SD [1, 7]: 0.1 ± 0.1 lice/fish
Number of Mobile Lice/Fish % Efficacy [1, 7]: 98.8%
Number of Mobile Lice/Fish Mean ± SD [1, 7]: 0.2 ± 0.3 lice/fish
Total Number of Lice/Fish % Efficacy [1, 7]: 98.8%
Total Number of Lice/Fish Mean ± SD [1, 7]: 0.2 ± 0.3 lice/fish
Number of Attached Lice/Fish Mean ± SD [1, 8]: 0.1 ± 0.2 lice/fish
Number of Mobile Lice/Fish % Efficacy [1, 8]: 99.9%
Number of Mobile Lice/Fish Mean ± SD [1, 8]: 0.0 ± 0.1 lice/fish
Total Number of Lice/Fish % Efficacy [1, 8]: 99.5%
Total Number of Lice/Fish Mean ± SD [1, 8]: 0.1 ± 0.2 lice/fish
Number of Attached Lice/Fish Mean ± SD [1, 9]: 0.0 ± 0.0 lice/fish
Number of Mobile Lice/Fish % Efficacy [1, 9]: 99.9%
Number of Mobile Lice/Fish Mean ± SD [1, 9]: 0.0 ± 0.1 lice/fish
Total Number of Lice/Fish % Efficacy [1, 9]: 99.9%
Total Number of Lice/Fish Mean ± SD [1, 9]: 0.0 ± 0.1 lice/fish
Number of Attached Lice/Fish % Efficacy [1, 10]: 92.3%
Number of Attached Lice/Fish Mean ± SD [1, 10]: 0.3 ± 0.3 lice/fish
Number of Mobile Lice/Fish % Efficacy [1, 10]: 99.7%
Number of Mobile Lice/Fish Mean ± SD [1, 10]: 0.1 ± 0.1 lice/fish
Total Number of Lice/Fish % Efficacy [1, 10]: 98.4%
Total Number of Lice/Fish Mean ± SD [1, 10]: 0.3 ± 0.3 lice/fish
Number of Attached Lice/Fish Mean ± SD [1, 11]: 0.0 ± 0.0 lice/fish
Number of Mobile Lice/Fish Mean ± SD [1, 11]: 0.1 ± 0.2 lice/fish
Total Number of Lice/Fish % Efficacy [1, 11]: 99.6%
Total Number of Lice/Fish Mean ± SD [1, 11]: 0.1 ± 0.2 lice/fish
Number of Attached Lice/Fish Mean ± SD [1, 12]: 0.0 ± 0.0 lice/fish
Number of Mobile Lice/Fish % Efficacy [1, 12]: 99.7%
Number of Mobile Lice/Fish Mean ± SD [1, 12]: 0.1 ± 0.2 lice/fish
Total Number of Lice/Fish % Efficacy [1, 12]: 99.7%
Total Number of Lice/Fish Mean ± SD [1, 12]: 0.1 ± 0.2 lice/fish
Number of Attached Lice/Fish % Efficacy [1, 13]: 93.8%
Number of Attached Lice/Fish Mean ± SD [1, 13]: 0.2 ± 0.3 lice/fish
Number of Mobile Lice/Fish % Efficacy [1, 13]: 99.8%
Number of Mobile Lice/Fish Mean ± SD [1, 13]: 0.0 ± 0.1 lice/fish
Total Number of Lice/Fish % Efficacy [1, 13]: 98.8%
Total Number of Lice/Fish Mean ± SD [1, 13]: 0.2 ± 0.4 lice/fish
Number of Attached Lice/Fish Mean ± SD [1, 14]: 0.0 ± 0.1 lice/fish
Number of Mobile Lice/Fish % Efficacy [1, 14]: 100.0%
Number of Mobile Lice/Fish Mean ± SD [1, 14]: 0.0 ± 0.0 lice/fish
Total Number of Lice/Fish % Efficacy [1, 14]: 99.9%
Total Number of Lice/Fish Mean ± SD [1, 14]: 0.0 ± 0.1 lice/fish
Number of Attached Lice/Fish Mean ± SD [1, 15]: 0.1 ± 0.2 lice/fish
Number of Mobile Lice/Fish % Efficacy [1, 15]: 99.9%
Number of Mobile Lice/Fish Mean ± SD [1, 15]: 0.1 ± 0.2 lice/fish
Total Number of Lice/Fish % Efficacy [1, 15]: 99.6%
Total Number of Lice/Fish Mean ± SD [1, 15]: 0.1 ± 0.2 lice/fish
efficacy compared with the lowest dosage (0.010 mg/kg/d) ([1]; dosages of 0.025, 0.050 and 0.125 mg/kg/d in medicated feed over 7 consecutive days): significantly higher efficacy
observed minimum efficacious dosage relative to U.S. Pat. No. 9,920,037 (1.0 mg/kg/d) ([1]; medicated feed over 7 consecutive days to salmon, provisionally concluded): 20-40 times lower
effectiveness in reducing sea lice burdens [2]: ~100%
efficacy against chalimus and pre-adult/adult stages of the sea louse [3]: 100%
